# Measurements published in paper PMC10349806 (Nature Communications, 2023).
# “And” between values parts separate entries of the source, which are not always exact repeats. Equal values may be shown once.
# Molecular target: T1, PfCRT variant CD2 (D24A, D57A, Y179A, F235A, D241A, E406A, D419A) (Plasmodium falciparum, UniProt Q9N623, A220S/D241A/D24A/D419A/D57A/E406A/F235A/I356T/K76T/M74I/N326S/N75E/Q271E/R371I/Y179A)
# T1 sequence (Q9N623 1-424 D24A/D57A/M74I/N75E/K76T/Y179A/A220S/F235A/D241A/Q271E/N326S/I356T/R371I/E406A/D419A): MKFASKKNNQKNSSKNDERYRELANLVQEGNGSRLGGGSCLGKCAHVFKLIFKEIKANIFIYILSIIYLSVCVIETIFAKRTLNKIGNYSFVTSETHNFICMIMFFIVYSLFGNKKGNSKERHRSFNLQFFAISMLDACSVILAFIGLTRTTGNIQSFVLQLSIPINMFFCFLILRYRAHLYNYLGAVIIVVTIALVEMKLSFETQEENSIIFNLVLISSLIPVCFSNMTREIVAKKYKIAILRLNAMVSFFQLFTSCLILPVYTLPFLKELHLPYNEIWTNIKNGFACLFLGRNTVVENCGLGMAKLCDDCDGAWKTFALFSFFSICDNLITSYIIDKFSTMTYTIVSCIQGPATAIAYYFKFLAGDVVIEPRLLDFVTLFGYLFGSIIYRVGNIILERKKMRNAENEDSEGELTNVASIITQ
# Assay: CQ uptake assay, oocytes expressing CD2
# Assay type: cell-based
# Method: Site-directed mutagenesis of PfCRT^Dd2 was performed as described using the megaprimer method with overlap extension[21],[54]. The primer pairs used are listed in Supplementary Table 6. Please note that a codon-optimized and oocyte-adapted version of PfCRT^Dd2 was used[22] (Supplementary Fig. 16). The resulting DNA fragment was cloned into the SP64T expression vector and verified by sequencing.
# Oocytes were obtained as described previously. Briefly, adult (>2 years old) female X. laevis frogs (NASCO) were anesthetized in a cooled solution of ethyl 3-amino benzoate methanesulfonate (0.1%, w/v), followed by a surgical removal of parts of the ovary. The ovary lobes were carefully dissected and small pieces of oocytes were incubated in Ca^2+-free ND96 buffer (96 mM NaCl, 2 mM KCl, 1 mM MgCl2 buffered with 5 mM HEPES/NaOH, pH 7.5) supplemented with collagenase D (0.1%, w/v; Roche), BSA (0.5%, w/v), and 9 mm Na2HPO4 at 18 °C for 14-16 h while gentle shaking. After incubation, the oocytes were carefully washed several times with ND96 buffer (96 mM NaCl, 2 mM KCl, 1.8 mM CaCl2, 1 mM MgCl2 buffered with 5 mM HEPES/NaOH, pH 7.5) supplemented with 100 mg l^−1 gentamycin). Defolliculated and healthy-looking stage V-VI oocytes were manually selected for RNA microinjection. The RNA was generated as following: The codon-optimized sequences of PfCRT variants were cloned into the pSP64T expression vector. After vector linearization using the restriction endonucleases BamHI or SalI (New England Biolabs), transcription was performed using the in vitro SP6 mMessage mMachine Kit (Ambion)[34]. The obtained RNA was kept at −80 °C and diluted with nuclease-free water to a concentration of 0.6 μg μl^−1. Precision-bore glass capillary tubes (3.5-inch glass capillaries; Drummond Scientific Co.) were pulled on a vertical puller (P-87 Flaming/Brown micropipette puller, Sutter Instrument Co.), graduated, and placed on a microinjector (Nanoject II Auto-Nanoliter Injector, Drummond Scientific Co.). 50 nl of nuclease-free water alone (control oocytes) or 50 nl of 0.6 μg μl^−1 RNA were injected under stereomicroscopic control. Injected oocytes were incubated for 46–72 h at 18 °C with twice-daily buffer changes before usage in experiments.
# Drug uptake assays were performed as described previously[21],[22],[24],[34]. […] The direction of radio-labeled drug transport is here from the mostly acidic extracellular solution (pH 4.5 or 6.0, as indicated) into the oocyte cytosol (pH ∼ 7.2), which corresponds to the efflux of drug from the acidic digestive vacuole (pH 5.2) into the parasite cytoplasm (pH 7.2). The topology of PfCRT in the oolemma is such that both the N- and C-terminus face the extracellular milieu[3],[22]. In the parasite, the N- and C-terminus face the lumen of the digestive vacuole. CQ uptake kinetics were performed by incubating oocytes in ND96 buffer adjusted to a pH of 4.5, 5.0, 5.5, or 6.0 and supplemented with 50 nM [^3H]CQ and one of 7 different CQ concentrations (10 µM, 50 µM, 100 µM, 200 µM, 300 µM, 400 µM, 500 µM CQ). The reaction was stopped at the 60 min time point, which is in the linear uptake range[22],[34] (Supplementary Fig. 17). For determination of the amount of drug uptake for each oocyte, the reaction medium was removed and the oocytes were washed three times with 2 ml of ice-cold ND96 buffer. Each oocyte was individually transferred to a scintillation vial containing 5% sodium dodecyl sulfate (200 μl) for lysis. The radioactivity of each sample was measured using a liquid scintillation analyzer Tri-Carb 4910 TR (PerkinElmer). Oocytes that were injected with water instead of RNA were analyzed in parallel, representing the uptake of a drug by diffusion and/or endogenous permeation pathways. The resulting value represents the “background“ level of drug accumulation in oocytes (in-depth discussion in[22]). […]
smiles,measurement,setting,value
"CCN(CC)CCCC(C)Nc1ccnc2cc(Cl)ccc12 (stereo not drawn) [CQ, chloroquine]",Activity at pH 4.5,"CD2, 50 µM CQ, 1 h, mean ± SEM",1.26 ± 0.05 pmol h-1 oocyte-1
same,Activity at pH 6.0,"CD2, 50 µM CQ, 1 h, mean ± SEM",2.31 ± 0.23 pmol h-1 oocyte-1
same,R-value,"CD2, CQ transport at pH 4.5 / pH 6.0",0.56 ± 0.05
same,CD2 transport activity pH 4.5,"pH 4.5, single replicates, Fig 1d left",1.18 pmol oocyte-1 h-1 and 1.21 pmol oocyte-1 h-1 and 1.38 pmol oocyte-1 h-1
same,CD2 R-value,"pH 4.5 vs pH 6.0, Fig 1d left",0.68 and 0.46 and 0.54
same,CD2 transport activity pH 6.0,"pH 6.0, single replicates, Fig 1d left",1.74 pmol oocyte-1 h-1 and 2.62 pmol oocyte-1 h-1 and 2.56 pmol oocyte-1 h-1
